Columns and labels:
Staphylococcus aureus = assay: CFU in glove fingers inoculated with blood containing Staphylococcus aureus (synergistic activity); format: cell-based; conditions: 2 minutes; CHG 450 μg, ZnO 12.5 mg
Method: Synergistic Activity of Zinc Oxide and CHX. CHG, ZnO, and a combination thereof was added to each glove finger. Glove fingers were then inoculated with 0.1 mL of blood containing 10^5 CFU Staphylococcus aureusmL. After 2 minutes, 0.9 mL of LTSB was added, and 0.2 mL of the extract were plated to determine colony counts.
This experiment was carried out using the method described in Example 14.

HIV = assay: Cidal concentration of CHG (1 minute kill), HIV; format: cell-based
HBV = assay: Cidal concentration of CHG (1 minute kill), HBV; format: cell-based
[1] = Product formed on mixing zinc salts with CHG / gel formation; format: physicochemical
Method: The following zinc salts were mixed with CHG for 1 hour and observed for the resulting product.

| Compound | CFU/glove finger (Staphylococcus aureus) | cidal concentration for HIV (1 minute kill) (HIV) | cidal concentration for HBV (1 minute kill) (HBV) | gel formation (in words) [1] |
| --- | --- | --- | --- | --- |
| N=C(NCCCCCCNC(=N)NC(=N)Nc1ccc(Cl)cc1)NC(=N)Nc1ccc(Cl)cc1 [CHG, chlorhexidine gluconate] | 1420 CFU/glove finger | the same as that for Staphylococcus aureus | the same as that for Staphylococcus aureus |  |
| zinc gluconate |  |  |  | forming a gel matrix when mixed with water or alcohol |

From patent US6037386A, “Composition for inactivating irritants in fluids” (priority 1999, dated 2000)
